Data taken from US10538555B2, “Macrocyclic inhibitors of the PD-1/PD-L1 and CD80(B7-1)/PD-L1 protein/protein interactions” (BRISTOL-MYERS SQUIBB COMPANY, priority 2014, dated 2020).
*1 amine or outer side, *2 acyl side, *3 side chain or, on linkers, in order; H or OH if unused. Where a SMILES comes first, the peptide text is derived from it. Bridges are numbered along the chain shown (N, C = ends). [ ]: non-standard residue; d: D form. ξ: configuration not given here. Trp(βS-Me) = C[C@@H](c1c[nH]c2ccccc12)[C@H](N)C(=O)O; Phe(3,4,5-F3) = N[C@@H](Cc1cc(F)c(F)c(F)c1)C(=O)O; Trp(1-Me) = Cn1cc(C[C@H](N)C(=O)O)c2ccccc21; NMePhe(4-F) = CN[C@@H](Cc1ccc(F)cc1)C(=O)O; NMeW = CN[C@@H](Cc1c[nH]c2ccccc12)C(=O)O; Phe(4-F) = N[C@@H](Cc1ccc(F)cc1)C(=O)O; d(cisHyp) = O=C(O)[C@H]1C[C@@H](O)CN1; NMeY = CN[C@@H](Cc1ccc(O)cc1)C(=O)O; NMeIle(3ξ) = CCC(C)[C@H](NC)C(=O)O; Hyp = O=C(O)[C@@H]1C[C@@H](O)CN1; NMeF = CN[C@@H](Cc1ccccc1)C(=O)O; X1 = O=C([C@H]1COCCN1[*:1])[*:2]; NMeL = CN[C@@H](CC(C)C)C(=O)O; NMeNle = CCCC[C@H](NC)C(=O)O; Pip = O=C(O)[C@@H]1CCCCN1; dPip = O=C(O)[C@H]1CCCCN1; NMeA = CN[C@@H](C)C(=O)O; Orn = NCCC[C@H](N)C(=O)O; dThz = O=C(O)[C@H]1CSCN1; Dab = NCC[C@H](N)C(=O)O; Dap = NC[C@H](N)C(=O)O; ξP = O=C(O)C1CCCN1; Sar = CNCC(=O)O

Each molecule was assayed against T1, Human PD-L1/PD-1 (Homo sapiens, UniProt Q9NZQ7) (assay: HTRF Human PD-L1/PD-1 binding assay (PD-1-Ig/PD-L1-His)). Details: PD-L1-His 10 nM, PD-1-Ig 20 nM; class symbol; read-out: HTRF Human PD-L1/PD-1 Binding Assay IC50 Range.
T1 construct: TVMV protease cleavage site (C); made in house; host or cells: HEK293T cells
T1 sequence (Q9NZQ7 with tags, fused parts or gaps): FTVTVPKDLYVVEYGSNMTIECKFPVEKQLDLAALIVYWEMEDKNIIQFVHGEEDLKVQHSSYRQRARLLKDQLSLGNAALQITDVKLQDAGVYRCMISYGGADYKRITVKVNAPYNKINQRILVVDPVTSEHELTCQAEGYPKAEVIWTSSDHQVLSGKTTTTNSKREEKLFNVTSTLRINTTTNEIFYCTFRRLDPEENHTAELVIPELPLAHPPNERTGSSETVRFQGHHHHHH
Procedure, shortened: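 Compound preincubated 15 min with PD-L1-His (10 nM final), then PD-1-Ig (20 nM final) added for 15 min in dPBS with 0.1% BSA and 0.05% Tween-20. Detection by Eu-cryptate anti-Ig (1 nM) and APC anti-His (20 nM) after 30 min; 665/620 nm HTRF ratio. Proteins expressed in HEK293T.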

Structure (SMILES)	IC50
CCCC[C@H]1C(=O)N2C[C@H](O)C[C@@H]2C(=O)N[C@@H](CC(=O)O)C(=O)N[C@@H](C(C)C)C(=O)N(C)[C@@H](Cc2ccccc2)C(=O)N[C@@H](CCC(=O)O)C(=O)N2CCC[C@@H]2C(=O)N[C@@H](Cc2c[nH]c3ccccc23)C(=O)N[C@@H](Cc2ccc(O)cc2)C(=O)N[C@@H](CCCN)C(=O)N[C@H](C(=O)NCC(N)=O)CSCC(=O)N[C@@H](Cc2cc(F)c(F)c(F)c2)C(=O)N(C)[C@@H](Cc2ccccc2)C(=O)N1C [Example 3646] ({CH2CO}-[Phe(3,4,5-F3)][NMeF][NMeNle][d(cisHyp)]DV[NMeF]E[dP]WY[Orn]CG-NH2; thioether N-13)	10 to 99.9 nM
CCCC[C@H]1C(=O)N(C)[C@@H](CCCC)C(=O)N[C@@H](CCC(=O)O)C(=O)N[C@H](C(=O)NCC(N)=O)CSCC(=O)N[C@@H](Cc2ccc(O)cc2)C(=O)N(C)[C@@H](C)C(=O)N[C@@H](CC(=O)O)C(=O)N2CCC[C@H]2C(=O)N[C@@H](Cc2cnc[nH]2)C(=O)N[C@@H](CCC(=O)O)C(=O)N2C[C@H](O)C[C@H]2C(=O)N[C@@H](Cc2c[nH]c3ccccc23)C(=O)N[C@@H](CCC(=O)O)C(=O)N[C@@H](Cc2c[nH]c3ccccc23)C(=O)N1C [Example 5236] ({CH2CO}-Y[NMeA]DPHE[Hyp]WEW[NMeNle][NMeNle]ECG-NH2; thioether N-14)	1 to 9.9 nM
CCCC[C@H]1C(=O)N(C)[C@@H](CCCC)C(=O)N[C@@H](CCC(=O)O)C(=O)N[C@H](C(=O)NCC(N)=O)CSCC(=O)N[C@@H](Cc2ccc(OC)cc2)C(=O)N(C)[C@@H](C)C(=O)N[C@@H](CC(N)=O)C(=O)N2CCC[C@H]2C(=O)N[C@@H](CN)C(=O)N[C@@H](CCCCN)C(=O)N2C[C@H](O)C[C@H]2C(=O)N[C@@H](Cc2c[nH]c3ccccc23)C(=O)N[C@@H](CCN)C(=O)N[C@@H](Cc2c[nH]c3ccccc23)C(=O)N1C [Example 7121] ({CH2CO}-Y(Me)[NMeA]NP[Dap]K[Hyp]W[Dab]W[NMeNle][NMeNle]ECG-NH2; thioether N-14)	1 to 9.9 nM
CCCC[C@H]1C(=O)N(C)[C@@H](CCCC)C(=O)N[C@@H](C)C(=O)N[C@H](C(=O)NCC(N)=O)CSCC(=O)N[C@@H](Cc2ccc(O)cc2)C(=O)N2CCCC[C@H]2C(=O)N[C@@H](CC(=O)O)C(=O)N2CCC[C@H]2C(=O)N[C@@H](Cc2cnc[nH]2)C(=O)N[C@@H](CCC(N)=O)C(=O)N2C[C@H](O)C[C@H]2C(=O)N[C@@H](Cc2c[nH]c3ccccc23)C(=O)N[C@@H](CO)C(=O)N[C@@H](Cc2cn(C)c3ccccc23)C(=O)N1C [Example 1502] ({CH2CO}-Y[Pip]DPHQ[Hyp]WS[Trp(1-Me)][NMeNle][NMeNle]ACG-NH2; thioether N-14)	10 to 99.9 nM
CCCC[C@H]1C(=O)N(C)[C@@H](CCCC)C(=O)N[C@@H](CCC(=O)O)C(=O)N[C@H](C(=O)NCC(N)=O)CSCC(=O)N[C@@H](Cc2ccc(OC)cc2)C(=O)N(C)[C@@H](C)C(=O)N[C@@H](CC(N)=O)C(=O)N2CCC[C@H]2C(=O)N[C@@H](Cc2cnc[nH]2)C(=O)N[C@@H](CCC(=O)O)C(=O)N2C[C@H](O)C[C@H]2C(=O)N[C@@H](Cc2c[nH]c3ccccc23)C(=O)N[C@@H](CC(=O)O)C(=O)N[C@@H](Cc2c[nH]c3ccccc23)C(=O)N1C [Example 7124] ({CH2CO}-Y(Me)[NMeA]NPHE[Hyp]WDW[NMeNle][NMeNle]ECG-NH2; thioether N-14)	10 to 99.9 nM
CCCC[C@H]1C(=O)N(C)[C@@H](CCCC)C(=O)N[C@@H](CN)C(=O)N[C@H](C(=O)NCC(N)=O)CSCC(=O)N[C@@H](Cc2ccc(O)cc2)C(=O)N(C)[C@@H](C)C(=O)N[C@@H](CC(=O)O)C(=O)N2CCC[C@H]2C(=O)N[C@@H](Cc2c[nH]cn2)C(=O)N[C@@H](CCC(=O)O)C(=O)N2C[C@H](O)C[C@H]2C(=O)N[C@@H](Cc2c[nH]c3ccccc23)C(=O)N[C@@H](CCN)C(=O)N[C@@H](Cc2cn(CC(=O)O)c3ccccc23)C(=O)N1C [Example 5220]	100 to 990 nM
CCCC[C@H]1C(=O)N(C)[C@@H](CCCC)C(=O)N[C@@H](CCC(=O)O)C(=O)N[C@H](C(=O)NCC(N)=O)CSCC(=O)N[C@@H](Cc2ccc(OC)cc2)C(=O)N(C)[C@@H](C)C(=O)N[C@@H](CC(=O)O)C(=O)N2CCC[C@H]2C(=O)N[C@@H](Cc2cnc[nH]2)C(=O)N[C@@H](CCC(=O)O)C(=O)N2C[C@H](O)C[C@H]2C(=O)N[C@@H](Cc2c[nH]c3ccccc23)C(=O)N[C@@H](CCN)C(=O)N[C@@H](Cc2c[nH]c3ccccc23)C(=O)N1C [Example 7110] ({CH2CO}-Y(Me)[NMeA]DPHE[Hyp]W[Dab]W[NMeNle][NMeNle]ECG-NH2; thioether N-14)	1 to 9.9 nM
CCCC[C@H]1C(=O)N[C@@H](CC(C)C)C(=O)N[C@H](C(=O)NCC(N)=O)CSCC(=O)N[C@@H](Cc2ccc(O)cc2)C(=O)N(C)[C@@H](C)C(=O)N[C@@H](CC(N)=O)C(=O)N2CCCC2C(=O)N[C@@H](CN)C(=O)N[C@@H](CC(C)C)C(=O)N2C[C@H](O)C[C@H]2C(=O)N[C@@H](Cc2c[nH]c3ccccc23)C(=O)N[C@@H](CCN)C(=O)N(C)[C@@H](Cc2c[nH]c3ccccc23)C(=O)N(C)[C@@H](CCCC)C(=O)N1C (stereo partly shown) [Example 5265] ({CH2CO}-Y[NMeA]N[ξP][Dap]L[Hyp]W[Dab][NMeW][NMeNle][NMeNle]LCG-NH2; thioether N-14)	10 to 99.9 nM
CCCC[C@H]1C(=O)N[C@@H](Cc2ccc(O)cc2)C(=O)N2CCC[C@@H]2C(=O)N[C@@H](Cc2c[nH]c3ccccc23)C(=O)N[C@@H](Cc2ccc(O)cc2)C(=O)N[C@@H](CC(C)C)C(=O)N[C@H](C(=O)NCC(N)=O)CSCC(=O)N[C@@H](Cc2cc(F)c(F)c(F)c2)C(=O)N(C)[C@@H](Cc2ccccc2)C(=O)N(C)[C@@H](CCCC)C(=O)N2CCC[C@@H]2C(=O)N[C@@H](CC(=O)O)C(=O)N[C@@H](C(C)C)C(=O)N1C [Example 9213] ({CH2CO}-[Phe(3,4,5-F3)][NMeF][NMeNle][dP]DV[NMeNle]Y[dP]WYLCG-NH2; thioether N-13)	10 to 99.9 nM
CCCC[C@H]1C(=O)N(C)[C@@H](CCCC)C(=O)N[C@@H](C)C(=O)N[C@H](C(=O)NCC(N)=O)CSCC(=O)N[C@@H](Cc2ccc(O)cc2)C(=O)N2CCNC[C@H]2C(=O)N[C@@H](CC(N)=O)C(=O)N2CCC[C@H]2C(=O)N[C@@H](Cc2c[nH]cn2)C(=O)N[C@@H](CC(C)C)C(=O)N2C[C@H](O)C[C@H]2C(=O)N[C@@H](Cc2c[nH]c3ccccc23)C(=O)N[C@@H](CO)C(=O)N[C@@H](Cc2c[nH]c3ccccc23)C(=O)N1C [Example 1529]	1 to 9.9 nM

Now from value to molecule:

IC50	Structure (SMILES)
1 to 9.9 nM	CCCC[C@H]1C(=O)N(C)CC(=O)N[C@@H](CC(=O)O)C(=O)N[C@@H](C(C)C)C(=O)N(C)[C@@H](Cc2ccccc2)C(=O)N[C@@H](Cc2ccc(O)cc2)C(=O)N(C)CC(=O)N[C@@H]([C@@H](C)c2c[nH]c3ccccc23)C(=O)N[C@@H](Cc2ccc(O)cc2)C(=O)N[C@@H](CC(C)C)C(=O)N[C@H](C(=O)NCC(N)=O)CSCC(=O)N[C@@H](Cc2ccccc2)C(=O)N(C)[C@@H](Cc2ccccc2)C(=O)N1C [Example 10533] ({CH2CO}-F[NMeF][NMeNle][Sar]DV[NMeF]Y[Sar][Trp(βS-Me)]YLCG-NH2; thioether N-13)
100 to 990 nM	CCCC[C@H]1C(=O)N2CCC[C@@H]2C(=O)N[C@@H](CC(=O)O)C(=O)N[C@@H](C(C)C)C(=O)N(C)[C@@H](Cc2ccccc2)C(=O)N[C@@H](CCN)C(=O)N2CCCC[C@@H]2C(=O)N[C@H](CCC(=O)O)C(=O)N[C@@H](Cc2ccc(O)cc2)C(=O)N[C@@H](CCCN)C(=O)N[C@H](C(=O)NCC(N)=O)CSCC(=O)N[C@@H](Cc2cc(F)c(F)c(F)c2)C(=O)N(C)[C@@H](Cc2ccc(F)cc2)C(=O)N1C [Example 10609] ({CH2CO}-[Phe(3,4,5-F3)][NMePhe(4-F)][NMeNle][dP]DV[NMeF][Dab][dPip][dE]Y[Orn]CG-NH2; thioether N-13)
10 to 99.9 nM	CCCC[C@H]1C(=O)N2CCC[C@@H]2C(=O)N[C@@H](CC(=O)O)C(=O)N[C@@H](C(C)C)C(=O)N(C)[C@@H](Cc2ccccc2)C(=O)N[C@@H](CCN)C(=O)N2CCOC[C@@H]2C(=O)N[C@@H](Cc2c[nH]c3ccccc23)C(=O)N[C@@H](Cc2ccc(O)cc2)C(=O)N[C@@H](CCC(N)=O)C(=O)N[C@H](C(=O)NCC(N)=O)CSCC(=O)N[C@@H](Cc2cc(F)c(F)c(F)c2)C(=O)N(C)[C@@H](Cc2ccc(O)cc2)C(=O)N1C [Example 10626] ({CH2CO}-[Phe(3,4,5-F3)][NMeY][NMeNle][dP]DV[NMeF][Dab][X1]WYQCG-NH2; thioether N-13)
1000 to 10000 nM	CCCC[C@H]1C(=O)N2CCC[C@@H]2C(=O)N[C@@H](CC(=O)O)C(=O)N[C@@H](C(C)C)C(=O)N(C)[C@@H](CC(C)C)C(=O)N[C@@H](CCC(N)=O)C(=O)N2CCCC[C@@H]2C(=O)N[C@@H](Cc2c[nH]c3ccccc23)C(=O)N[C@@H](Cc2ccc(O)cc2)C(=O)N[C@@H](CC(C)C)C(=O)N[C@H](C(=O)NCC(N)=O)CSCC(=O)N[C@@H](Cc2ccc(F)cc2)C(=O)N(C)[C@@H](Cc2ccccc2)C(=O)N1C [Example 9254] ({CH2CO}-[Phe(4-F)][NMeF][NMeNle][dP]DV[NMeL]Q[dPip]WYLCG-NH2; thioether N-13)
1000 to 10000 nM	CCCC[C@H]1C(=O)N2CCC[C@@H]2C(=O)N[C@@H](CC(=O)O)C(=O)N[C@@H](C(C)C)C(=O)N(C)[C@@H](C(C)CC)C(=O)N[C@@H](Cc2ccc(O)cc2)C(=O)N2CCC[C@@H]2C(=O)N[C@@H](Cc2c[nH]c3ccccc23)C(=O)N[C@@H](Cc2ccc(O)cc2)C(=O)N[C@@H](CC(C)C)C(=O)N[C@H](C(=O)NCC(N)=O)CSCC(=O)N[C@@H](Cc2ccc(F)cc2)C(=O)N(C)[C@@H](Cc2ccccc2)C(=O)N1C (stereo partly shown) [Example 9257] ({CH2CO}-[Phe(4-F)][NMeF][NMeNle][dP]DV[NMeIle(3ξ)]Y[dP]WYLCG-NH2; thioether N-13)
10 to 99.9 nM	CCCC[C@H]1C(=O)N2CCC[C@@H]2C(=O)N[C@@H](CN)C(=O)N[C@@H](C(C)C)C(=O)N(C)[C@@H](Cc2ccccc2)C(=O)N[C@@H](Cc2ccc(O)cc2)C(=O)N2CSC[C@@H]2C(=O)N[C@@H](Cc2c[nH]c3ccccc23)C(=O)N[C@@H](Cc2ccc(O)cc2)C(=O)N[C@@H](CC(C)C)C(=O)N[C@H](C(=O)NCC(N)=O)CSCC(=O)N[C@@H](Cc2ccccc2)C(=O)N(C)[C@@H](Cc2ccccc2)C(=O)N1C [Example 10071] ({CH2CO}-F[NMeF][NMeNle][dP][Dap]V[NMeF]Y[dThz]WYLCG-NH2; thioether N-13)
